According to patent publication US20230138851A1, “NOVEL ALKYNE DERIVATIVES” (CARNA BIOSCIENCES, INC., priority 2020, published 2023):

Columns and labels:
Type in all cases: biochemical
[1] = target: T1, DYRK3 (Homo sapiens, UniProt O43781); experiment: Inhibition test on activity of DYRK family, mobility shift assay (MSA), DYRK3; conditions: ATP 20 μM, FITC-labeled DYRKtide peptide substrate, room temperature 1 hour; for IC50: read-out: Inhibitory Activity 3 (IC50 against DYRK3)
T1 construct: purchased Carna Biosciences, Inc. 04-133
T1 sequence (O43781 1-588): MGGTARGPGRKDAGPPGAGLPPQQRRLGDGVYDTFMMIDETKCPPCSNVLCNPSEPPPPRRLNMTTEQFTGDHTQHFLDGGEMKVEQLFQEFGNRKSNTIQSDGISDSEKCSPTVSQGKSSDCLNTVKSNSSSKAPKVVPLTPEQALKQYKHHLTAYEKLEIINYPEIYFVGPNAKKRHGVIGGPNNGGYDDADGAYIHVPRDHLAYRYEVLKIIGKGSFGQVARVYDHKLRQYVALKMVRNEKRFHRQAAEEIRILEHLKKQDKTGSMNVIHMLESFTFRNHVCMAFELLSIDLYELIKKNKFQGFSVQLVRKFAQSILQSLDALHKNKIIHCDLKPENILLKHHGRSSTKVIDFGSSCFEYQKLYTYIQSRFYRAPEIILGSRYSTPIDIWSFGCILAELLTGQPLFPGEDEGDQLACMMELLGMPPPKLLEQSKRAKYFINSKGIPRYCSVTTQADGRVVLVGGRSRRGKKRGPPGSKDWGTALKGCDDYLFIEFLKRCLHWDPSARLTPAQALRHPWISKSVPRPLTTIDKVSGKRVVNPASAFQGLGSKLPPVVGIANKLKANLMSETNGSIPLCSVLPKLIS
Procedure: (§1) [Inhibition Test on Activity of DYRK Family (DYRK1A, DYRK1B, DYRK2, and […])]
(§2) (Method for Measuring Kinase Activity)
(§3) The kinase activity was measured by mobility shift assay (MSA) method using QuickScout Screening Assist™ MSA (commercially available kit manufactured by Carna Biosciences, Inc.). The substrate of the kinase reaction used was an FITC-labeled DYRKtide peptide included in the kit. An assay buffer [20 mM HEPES, 0.01% Triton X-100™, 2 mM dithiothreitol, pH 7.5] was used to create a substrate mixture solution with a substrate (4 μM), MgCl2 (20 mM), and ATP (DYRK1A: 100 μM; DYRK1B: 200 μM; DYRK2: 40 μM; and DYRK3: 20 μM). In addition, kinases (DYRK1A: manufactured by Carna Biosciences, Inc., Cat. No. 04-130; DYRK1B: manufactured by Carna Biosciences, Inc., Cat. No. 04-131; DYRK2; manufactured by Carna Biosciences, Inc., Cat. No. 04-132; and DYRK3; manufactured by Carna Biosciences, Inc., Cat. No. 04-133) were diluted with the assay buffer to prepare enzyme solutions (DYRK1A: 0.2 ng/μL; DYRK1B: 0.08 ng/μL; DYRK2: 0.04 ng/μL; and DYRK3: 0.25 ng/μL). The 10 mM solution of the test compound in DMSO was further diluted with DMSO to 10 levels of the concentration (0.00003 mM, 0.0001 mM, 0.0003 mM, 0.001 mM, 0.003 mM, 0.01 mM, 0.03 mM, 0.1 mM, 0.3 mM, and 1 mM), each of which was subjected to 25-fold dilution with the assay buffer to obtain a drug solution (4% DMSO solution). 5 μL of the drug solution or a control solution (4% DMSO-assay buffer), 5 μL of the substrate mixture solution, and 10 μL of the enzyme solution were mixed in the wells of a polypropylene 384-well plate and allowed to react at room temperature for 1 hour, and then the reaction was quenched by adding 60 μL of the termination buffer included in the kit. Subsequently, the quantities of the substrates (S) and the phosphorylated substrate (P) in the reaction solution were measured using LabChip EZ Reader II system (manufactured by Caliper Life Sciences) according to the protocol of the assay kit.
(§4) (Method for Evaluating Inhibitory Activity)
(§5) The heights of the peaks of the “substrate” and the “phosphorylated substrate” were expressed as S and P, respectively, and a blank containing the assay buffer instead of the enzyme solution was also measured.
(§6) The inhibition rate (%) of the test compound was calculated according to the following equation:
(§7) Inhibition rate (%)=(1−(C−A)/(B−A))×100
(§8) wherein, A, B, and C represent P/(P+S) of the blank well, P/(P+S) of the control solution well, and P/(P+S) of the compound-containing well, respectively.
(§9) The IC50 value was calculated via a regression analysis of the inhibition rate and the test compound concentration (logarithmic value).
(§10) The inhibiting activities of representative compounds of the present invention are shown against DYRK1A, DYRK1B, DYRK2, and DYRK3 in Tables 7 and 8. The kinase activity inhibitory effect was indicated with the mark *** at an IC50 value of less than 0.01 μM; the mark ** at 0.01 μM or more and less than 0.1 μM; the mark * at 0.1 μM or more and less than 1 μM; and the mark — at 1 μM or more (N.D. indicates not measured).

[2] = target: T2, DYRK1A (Homo sapiens, UniProt Q13627); experiment: Inhibition test on activity of DYRK family, mobility shift assay (MSA), DYRK1A; conditions: ATP 100 μM, FITC-labeled DYRKtide peptide substrate, room temperature 1 hour; for IC50: read-out: Inhibitory Activity 1a (IC50 against DYRK1A)
T2 construct: purchased Carna Biosciences, Inc. 04-130
Procedure: as §1, §2, §3, §4, §5, §6, §7, §8, §9, §10

[3] = target: T3, DYRK2 (Homo sapiens, UniProt Q92630); experiment: Inhibition test on activity of DYRK family, mobility shift assay (MSA), DYRK2; conditions: ATP 40 μM, FITC-labeled DYRKtide peptide substrate, room temperature 1 hour; read-out: Inhibitory Activity 2 (IC50 against DYRK2)
T3 construct: purchased Carna Biosciences, Inc. 04-132
T3 sequence (Q92630 1-601): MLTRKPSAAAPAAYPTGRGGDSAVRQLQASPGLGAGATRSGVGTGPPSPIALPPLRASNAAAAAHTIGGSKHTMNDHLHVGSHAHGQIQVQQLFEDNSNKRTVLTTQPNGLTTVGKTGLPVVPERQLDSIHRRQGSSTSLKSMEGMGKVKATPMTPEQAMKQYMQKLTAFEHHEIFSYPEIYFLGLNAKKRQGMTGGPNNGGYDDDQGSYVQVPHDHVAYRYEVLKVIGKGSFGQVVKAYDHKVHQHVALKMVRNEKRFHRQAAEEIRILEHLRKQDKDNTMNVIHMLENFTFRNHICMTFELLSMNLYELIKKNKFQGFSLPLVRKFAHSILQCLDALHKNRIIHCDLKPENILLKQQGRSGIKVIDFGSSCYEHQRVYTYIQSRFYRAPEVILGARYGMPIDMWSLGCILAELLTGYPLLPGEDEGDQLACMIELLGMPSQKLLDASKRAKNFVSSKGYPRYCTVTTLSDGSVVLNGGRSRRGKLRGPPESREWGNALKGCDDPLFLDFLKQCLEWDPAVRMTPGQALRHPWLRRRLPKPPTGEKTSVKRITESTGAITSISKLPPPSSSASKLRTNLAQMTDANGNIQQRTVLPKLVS
Procedure: as §1, §2, §3, §4, §5, §6, §7, §8, §9, §10

Structure (SMILES) | IC50 [1] [nM] | IC50 [2] [nM] | IC50 [3] [nM] | Inhibitory Activity 1a (IC50 against DYRK1A) [2] | Inhibitory Activity 3 (IC50 against DYRK3) [1]
CC#CC1CNC(=O)N1c1nc2c3c(ccc2s1)OCC3 (single isomer, unassigned) [Example 10, 1-(7,8-dihydrobenzofuro[4,5-d]thiazol-2-yl)-5-(prop-1-yn-1-yl)imidazolidin-2-one] | ≥ 1000 | 100 to 1000 | ≥ 1000 | – | –
CC(C)(O)C#CC1CNC(=O)N1c1nc2c3c(ccc2s1)OCC3 (racemic) [Example 22, (RS)-1-(7,8-dihydrobenzofuro[4,5-d]thiazol-2-yl)-5-(3-hydroxy-3-methylbut-1-yn-1-yl)imidazolidin-2-one] | ≥ 1000 | – | ≥ 1000 | * * | –
CC#CC1CNC(=O)N1c1nc2c(ccc3ocnc32)s1 (single isomer, unassigned) [Example 52, 5-(prop-1-yn-1-yl)-1-(thiazolo[5′,4′:5,6]benz[1,2-d]oxazol-7-yl)imidazolidin-2-one] | 100 to 1000 | – | ≥ 1000 | * * * | –
CC#CC1CNC(=O)N1c1nc2c3c(ccc2s1)OCCN3S(C)(=O)=O (racemic) [Example 47, (RS)-1-[9-(methylsulfonyl)-8,9-dihydro-7H-thiazolo[4′,5′:3,4]benz[1,2-b][1,4]oxazin-2-yl]-5-(prop-1-yn-1-yl)imidazolidin-2-one] | 100 to 1000 | – | ≥ 1000 | * * | –
CC#C[C@@H]1[C@H](C(C)C)NC(=O)N1c1nc2c3c(ccc2s1)OCC3 [Example 68, (4S,5R)-1-(7,8-dihydrobenzofuro[4,5-d]thiazol-2-yl)-4-isopropyl-5-(prop-1-yn-1-yl)imidazolidin-2-one] | 100 to 1000 | – | ≥ 1000 | * * * | –
CC#C[C@H]1[C@H](COC)NC(=O)N1c1nc2c3c(ccc2s1)OCC3 (single isomer, unassigned) [Example 77, trans-1-(7,8-dihydrobenzofuro[4,5-d]thiazol-2-yl)-4-(methoxymethyl)-5-(prop-1-yn-1-yl)imidazolidin-2-one] | ≥ 1000 | – | ≥ 1000 | * * | –
CN(C)CC#CC1CNC(=O)N1c1nc2c3c(ccc2s1)OCC3 (racemic) [Example 18, (RS)-1-(7,8-dihydrobenzofuro[4,5-d]thiazol-2-yl)-5-[3-(dimethylamino)prop-1-yn-1-yl]imidazolidin-2-one] | 100 to 1000 | – | ≥ 1000 | * * | –

Further lines, results first:

IC50 [1] [nM] | IC50 [2] [nM] | IC50 [3] [nM] | Inhibitory Activity 1a (IC50 against DYRK1A) [2] | Inhibitory Activity 3 (IC50 against DYRK3) [1] | Structure (SMILES)
≥ 1000 | 100 to 1000 | ≥ 1000 | – | – | CC#CC1CNC(=O)N1c1nc2c3c(ccc2s1)OCCN3CCN1CCCCC1 (racemic) [Example 43, (RS)-1-{9-[2-(piperidin-1-yl)ethyl]-8,9-dihydro-7H-thiazolo[4′,5′:3,4]benz[1,2-b][1,4]oxazin-2-yl}-5-(prop-1-yn-1-yl)imidazolidin-2-one]
100 to 1000 | – | 100 to 1000 | * * | – | CC#CC1CNC(=O)N1c1nc2c(ccc3ncccc32)s1 (single isomer, unassigned) [Example 36, 5-(prop-1-yn-1-yl)-1-(thiazolo[4,5-f]quinolin-2-yl)imidazolidin-2-one]
≥ 1000 | 100 to 1000 | ≥ 1000 | – | – | CC#CC1CNC(=O)N1c1nc2c3c(ccc2s1)OCC(C)N3C (single isomer, unassigned) [Example 48, 1-(-8,9-dimethyl-8,9-dihydro-7H-thiazolo[4′,5′:3,4]benz[1,2-b][1,4]oxazin-2-yl)-5-(prop-1-yn-1-yl)imidazolidin-2-one]
100 to 1000 | – | 100 to 1000 | * * * | – | CC#CC1CNC(=O)N1c1nc2c(ccc3nn(C)cc32)s1 (racemic) [Example 51, (RS)-1-(7-methyl-7H-thiazolo[4,5-e]indazol-2-yl)-5-(prop-1-yn-1-yl)imidazolidin-2-one]
– | – | 100 to 1000 | * * * | * * | CC#C[C@@H]1[C@H]([C@@H](C)O)NC(=O)N1c1nc2c3c(ccc2s1)OCC3 [Example 82, (4R,5R)-1-(7,8-dihydrobenzofuro[4,5-d]thiazol-2-yl)-4-((R)-1-hydroxyethyl)-5-(prop-1-yn-1-yl)imidazolidin-2-one]
– | – | 100 to 1000 | * * | * * | CC#CC1CNC(=O)N1c1nc2c(ccc3ncn(CC(C)(C)O)c32)s1 (racemic) [Example 37, (RS)-1-[8-(2-hydroxy-2-methylpropyl)-8H-imidazo[4′,5′;5,6]benz[1,2-d]thiazol-2-yl]-5-(prop-1-yn-1-yl)imidazolidin-2-one]
– | – | 100 to 1000 | * * * | * * | CC#C[C@@H]1[C@H](CO)NC(=O)N1c1nc2c3c(ccc2s1)OCC3 (relative stereo) [Example 60, cis-1-(7,8-dihydrobenzofuro[4,5-d]thiazol-2-yl)-4-(hydroxymethyl)-5-(prop-1-yn-1-yl)imidazolidin-2-one]
100 to 1000 | – | 100 to 1000 | * * * | – | CC#CC1CNC(=O)N1c1nc2c3c(ccc2s1)OCCN3CCO (racemic) [Example 41, (RS)-1-[9-(2-hydroxyethyl)-8,9-dihydro-7H-thiazolo[4′,5′:3,4]benz[1,2-b][1,4]oxazin-2-yl]-5-(prop-1-yn-1-yl)imidazolidin-2-one]
